We go through 1 compound from PMC5780470, “Copper(I)-binding properties of de-coppering drugs for the treatment of Wilson disease. α-Lipoic acid as a potential anti-copper agent” (Scientific Reports, 2018).

This experiment addresses MT2A (MT2, Cu10MT, Cu10MT2) (Oryctolagus cuniculus, UniProt P18055). In words: ESI-MS demetallation of Cu10MT, Hill fit. The experiment is classed as binding. Conditions: C50 for Cu(I) extraction from 3 uM Cu10MT, not a protein affinity; 10 mM DTT, 20 mM ammonium acetate, pH 7.3, 25 °C; all CuMT-TTM complexes counted; no ternary complexes stated; read-out: C50 (mM) for Cu1Cox17. The source says: ESI-MS demetallation of Cu10MT, Hill fit on MT2A (MT2, Cu10MT, Cu10MT2)

Chain of MT2A (MT2, Cu10MT, Cu10MT2) (P18055 whole entry): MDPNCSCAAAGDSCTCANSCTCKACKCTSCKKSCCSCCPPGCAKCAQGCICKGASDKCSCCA

For `CCN(CC)C(=S)S` [DETC, diethyl dithiocarbamate], the IC50 worked out at 0.772 ± 0.087 mM.
